The source made the active and inactive calls. No cut-off for these calls is given here.
Columns and labels:
[1] = system: 4T1; test: Cytotoxicity against mouse 4T1 cells assessed as reduction in cell viability at 100 nM measured after 24 hrs by RealTime-glo cell viability assay; assay type: functional, cell-based
[2] = system: MDA-MB-231; test: Cytotoxicity against human MDA-MB-231 cells assessed as reduction in cell viability at 100 nM measured after 24 hrs by RealTime-glo cell viability assay; assay type: functional, cell-based
[3] = system: 4T1; test: Cytotoxicity against mouse 4T1 cells assessed as reduction in cell viability at 100 nM measured after 24 hrs in presence of SAHA by RealTime-glo cell viability assay; assay type: functional, cell-based
[4] = system: MDA-MB-231; test: Cytotoxicity against human MDA-MB-231 cells assessed as reduction in cell viability at 100 nM measured after 24 hrs in presence of SAHA by RealTime-glo cell viability assay; assay type: functional, cell-based
[5] = Toxicity in mouse B16-F10 cells implanted C57BL/6 mouse at 0.25 ug/kg, ip administered daily for 28 days; assay type: organism-based; details: in vivo, 0.00025 mg/kg, dose 0.25 µg/kg, time 28 day
[6] = Toxicity in mouse B16-F10 cells implanted C57BL/6 mouse at 0.25 ug/kg, ip administered daily for 28 days in presence of SAHA; assay type: organism-based; details: in vivo, 0.00025 mg/kg, dose 0.25 µg/kg, time 28 day
[7] = Toxicity in mouse B16-F10 cells implanted C57BL/6 mouse assessed as effect on body weight at 0.25 ug/kg, ip administered daily for 28 days; assay type: organism-based; details: in vivo, 0.00025 mg/kg, dose 0.25 µg/kg, time 28 day
[8] = Toxicity in mouse B16-F10 cells implanted C57BL/6 mouse assessed as effect on body weight at 0.25 ug/kg, ip administered daily for 28 days in presence of SAHA; assay type: organism-based; details: in vivo, 0.00025 mg/kg, dose 0.25 µg/kg, time 28 day
[9] = system: B16-F10; test: Antitumor activity against mouse B16-F10 cells implanted in C57BL/6 mouse assessed as reduction in tumor burden at 0.25 ug/kg, ip administered every second day for 18 days; assay type: functional, organism-based; details: dose 0.25 µg/kg, time 18.0 day
[10] = system: B16-F10; test: Antitumor activity against mouse B16-F10 cells implanted in C57BL/6 mouse assessed as reduction in tumor burden at 0.25 ug/kg, ip administered every second day for 18 days in presence of SAHA; assay type: functional, organism-based; details: dose 0.25 µg/kg, time 18.0 day
[11] = Toxicity in 4T1 cells implanted BALB/c mouse assessed as stress at 0.25 ug/kg, ip administered daily for 18 days; assay type: organism-based; details: in vivo, 0.00025 mg/kg, 432 h, dose 0.25 µg/kg, time 18 day
[12] = Toxicity in 4T1 cells implanted BALB/c mouse assessed as stress at 0.25 ug/kg, ip administered daily for 18 days in presence of SAHA; assay type: organism-based; details: in vivo, 0.00025 mg/kg, 432 h, dose 0.25 µg/kg, time 18 day
[13] = Toxicity in 4T1 cells implanted BALB/c mouse assessed as body weight loss at 0.25 ug/kg, ip administered daily for 18 days; assay type: organism-based; details: in vivo, 0.00025 mg/kg, 432 h, dose 0.25 µg/kg, time 18 day
[14] = Toxicity in 4T1 cells implanted BALB/c mouse assessed as body weight loss at 0.25 ug/kg, ip administered daily for 18 days in presence of SAHA; assay type: organism-based; details: in vivo, 0.00025 mg/kg, 432 h, dose 0.25 µg/kg, time 18 day
[15] = system: 4T1; test: Antitumor activity against mouse 4T1 cells implanted in BALB/c mouse assessed as reduction in tumor burden at 0.25 ug/kg, ip administered daily for 18 days in presence of SAHA relative to control; assay type: functional; set-up: scale not given: the % may be the effect or the level left; details: dose 0.25 µg/kg, time 18 day
[16] = system: Mus musculus; test: Immunomodulatory activity in mouse 4T1 cells implanted BALB/c mouse assessed as reduction in Ccl2 gene expression at 0.25 ug/kg, ip administered daily for 18 days by RT-qPCR analysis; assay type: functional, organism-based; details: dose 0.25 µg/kg, time 18.0 day
[17] = system: Mus musculus; test: Immunomodulatory activity in mouse 4T1 cells implanted BALB/c mouse assessed as reduction in Ccl5 gene expression at 0.25 ug/kg, ip administered daily for 18 days by RT-qPCR analysis; assay type: functional, organism-based; details: dose 0.25 µg/kg, time 18.0 day
[18] = system: Mus musculus; test: Immunomodulatory activity in mouse 4T1 cells implanted BALB/c mouse assessed as reduction in Ccl20 gene expression at 0.25 ug/kg, ip administered daily for 18 days by RT-qPCR analysis; assay type: functional, organism-based; details: dose 0.25 µg/kg, time 18.0 day
[19] = system: Mus musculus; test: Immunomodulatory activity in mouse 4T1 cells implanted BALB/c mouse assessed as reduction in Cxcl10 gene expression at 0.25 ug/kg, ip administered daily for 18 days by RT-qPCR analysis; assay type: functional, organism-based; details: dose 0.25 µg/kg, time 18.0 day
[20] = system: Mus musculus; test: Immunomodulatory activity in mouse 4T1 cells implanted BALB/c mouse assessed as induction of Il1a gene expression at 0.25 ug/kg, ip administered daily for 18 days by RT-qPCR analysis; assay type: functional, organism-based; details: dose 0.25 µg/kg, time 18.0 day
[21] = system: Mus musculus; test: Immunomodulatory activity in mouse 4T1 cells implanted BALB/c mouse assessed as reduction in total macrophage infiltration into tumors at 0.25 ug/kg, ip administered daily for 18 days by F4/80 staining based immunofluorescence microscopy; assay type: functional, organism-based; details: dose 0.25 µg/kg, time 18.0 day
[22] = system: 4T1; test: Cytotoxicity against mouse 4T1 cells assessed as reduction in cell viability at 100 nM measured after 24 hrs in presence of 1,25D by RealTime-glo cell viability assay; assay type: functional, cell-based
[23] = system: MDA-MB-231; test: Cytotoxicity against human MDA-MB-231 cells assessed as reduction in cell viability at 100 nM measured after 24 hrs in presence of 1,25D by RealTime-glo cell viability assay; assay type: functional, cell-based
[24] = target: T1, Protein deacetylase HDAC6 (Mus musculus) (UniProt Q9Z2V5); test: Inhibition of HDAC6 in mouse 4T1 cells assessed as induction of tubulin acetylation at 100 nM measured after 6 hrs by Western blot analysis; assay type: cell-based
T1 sequence (whole entry): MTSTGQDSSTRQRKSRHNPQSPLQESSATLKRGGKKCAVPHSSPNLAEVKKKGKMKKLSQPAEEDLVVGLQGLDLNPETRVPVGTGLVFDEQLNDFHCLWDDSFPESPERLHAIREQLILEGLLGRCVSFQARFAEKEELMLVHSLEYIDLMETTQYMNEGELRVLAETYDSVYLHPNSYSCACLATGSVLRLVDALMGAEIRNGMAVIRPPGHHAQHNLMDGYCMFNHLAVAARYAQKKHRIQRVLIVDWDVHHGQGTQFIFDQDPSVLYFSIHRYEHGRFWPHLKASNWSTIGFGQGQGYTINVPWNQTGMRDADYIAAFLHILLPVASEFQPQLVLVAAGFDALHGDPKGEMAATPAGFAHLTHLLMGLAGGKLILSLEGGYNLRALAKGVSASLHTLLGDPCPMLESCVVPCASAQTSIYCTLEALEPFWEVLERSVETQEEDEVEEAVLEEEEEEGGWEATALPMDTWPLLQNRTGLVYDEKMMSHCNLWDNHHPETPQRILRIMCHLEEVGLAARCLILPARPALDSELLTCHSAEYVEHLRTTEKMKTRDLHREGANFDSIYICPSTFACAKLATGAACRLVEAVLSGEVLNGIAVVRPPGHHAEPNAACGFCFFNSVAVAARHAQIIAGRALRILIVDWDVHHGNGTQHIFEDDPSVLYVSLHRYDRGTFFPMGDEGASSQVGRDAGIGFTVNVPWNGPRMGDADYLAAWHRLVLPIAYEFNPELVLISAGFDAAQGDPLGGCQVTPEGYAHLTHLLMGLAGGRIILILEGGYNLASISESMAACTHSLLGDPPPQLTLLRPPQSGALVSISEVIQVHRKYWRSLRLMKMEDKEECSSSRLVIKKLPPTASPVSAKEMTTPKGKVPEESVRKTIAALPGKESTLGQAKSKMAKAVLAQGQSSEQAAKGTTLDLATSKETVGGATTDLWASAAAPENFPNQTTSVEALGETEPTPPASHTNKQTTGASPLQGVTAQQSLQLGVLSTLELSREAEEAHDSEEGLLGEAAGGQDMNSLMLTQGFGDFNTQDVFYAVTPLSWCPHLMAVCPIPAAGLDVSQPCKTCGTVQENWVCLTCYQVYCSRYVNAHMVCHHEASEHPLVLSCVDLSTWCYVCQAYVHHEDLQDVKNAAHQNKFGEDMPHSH

[25] = target: T2, Vitamin D3 receptor (Mus musculus) (UniProt P48281); test: Agonist activity at VDR in mouse B16-F10 cells assessed as induction of Cyp24a1 gene at 100 nM measured after 24 hrs in presence of 1,25D by RT-qPCR analysis; assay type: cell-based; details: filed as agonist
T2 sequence (whole entry): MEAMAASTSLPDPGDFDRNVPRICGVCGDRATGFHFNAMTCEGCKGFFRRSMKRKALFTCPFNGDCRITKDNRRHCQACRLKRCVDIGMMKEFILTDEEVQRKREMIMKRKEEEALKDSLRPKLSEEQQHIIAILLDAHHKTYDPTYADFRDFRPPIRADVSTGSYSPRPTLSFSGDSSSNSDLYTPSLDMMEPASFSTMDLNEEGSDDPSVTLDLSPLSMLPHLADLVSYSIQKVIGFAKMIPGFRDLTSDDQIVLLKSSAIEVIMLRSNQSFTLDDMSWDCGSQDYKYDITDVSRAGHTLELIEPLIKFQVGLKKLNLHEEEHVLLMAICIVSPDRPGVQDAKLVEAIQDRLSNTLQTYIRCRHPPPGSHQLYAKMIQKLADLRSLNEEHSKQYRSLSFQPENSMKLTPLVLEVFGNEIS

[26] = target: T1, Protein deacetylase HDAC6 (Mus musculus); test: Inhibition of HDAC6 in mouse B16-F10 cells assessed as induction of tubulin acetylation at 100 nM measured after 6 hrs by Western blot analysis; assay type: cell-based
[27] = Toxicity in mouse B16-F10 cells implanted C57BL/6 mouse at 80 mg/kg, ip administered daily for 28 days; assay type: organism-based; details: in vivo, time 28 day
[28] = Toxicity in mouse B16-F10 cells implanted C57BL/6 mouse at 80 mg/kg, ip administered daily for 28 days in presence of 1,25D; assay type: organism-based; details: in vivo, time 28 day
[29] = Toxicity in mouse B16-F10 cells implanted C57BL/6 mouse assessed as effect on body weight at 80 mg/kg, ip administered daily for 28 days; assay type: organism-based; details: in vivo, time 28 day
[30] = Toxicity in mouse B16-F10 cells implanted C57BL/6 mouse assessed as effect on body weight at 80 mg/kg, ip administered daily for 28 days in presence of 1,25D; assay type: organism-based; details: in vivo, time 28 day
[31] = system: B16-F10; test: Antitumor activity against mouse B16-F10 cells implanted in C57BL/6 mouse assessed as reduction in tumor burden at 80 mg/kg, ip administered every second day for 18 days; assay type: functional, organism-based; details: time 18.0 day
[32] = system: B16-F10; test: Antitumor activity against mouse B16-F10 cells implanted in C57BL/6 mouse assessed as reduction in tumor burden at 80 mg/kg, ip administered every second day for 18 days in presence of 1,25D; assay type: functional, organism-based; details: time 18.0 day
[33] = Toxicity in 4T1 cells implanted BALB/c mouse assessed as stress at 80 mg/kg, ip administered daily for 18 days; assay type: organism-based; details: in vivo, 432 h, time 18 day
[34] = Toxicity in 4T1 cells implanted BALB/c mouse assessed as stress at 80 mg/kg, ip administered daily for 18 days in presence of 1,25D; assay type: organism-based; details: in vivo, 432 h, time 18 day
[35] = Toxicity in 4T1 cells implanted BALB/c mouse assessed as body weight loss at 80 mg/kg, ip administered daily for 18 days; assay type: organism-based; details: in vivo, 432 h, time 18 day
[36] = Toxicity in 4T1 cells implanted BALB/c mouse assessed as body weight loss at 80 mg/kg, ip administered daily for 18 days in presence of 1,25D; assay type: organism-based; details: in vivo, 432 h, time 18 day
[37] = system: 4T1; test: Antitumor activity against mouse 4T1 cells implanted in BALB/c mouse assessed as reduction in tumor burden at 80 mg/kg, ip administered daily for 18 days in presence of 1,25D relative to control; assay type: functional; set-up: scale not given: the % may be the effect or the level left; details: time 18 day
[38] = system: Mus musculus; test: Immunomodulatory activity in mouse 4T1 cells implanted BALB/c mouse assessed as reduction in total macrophage infiltration into tumors at 80 mg/kg, ip administered daily for 18 days by F4/80 staining based immunofluorescence microscopy; assay type: functional, organism-based; details: time 18.0 day

C=C1/C(=C\C=C2/CCC[C@]3(C)[C@@H]([C@H](C)CCCC(C)(C)O)CC[C@@H]23)C[C@@H](O)C[C@@H]1O [CALCITRIOL]
Activity [1]: Active | Activity [2]: Active | Activity [3]: Active | Activity [4]: Active | Activity [5]: Non-toxic | Activity [6]: Non-toxic | Activity [7]: Non-toxic | Activity [8]: Non-toxic | Activity [9]: Active | Activity [10]: Active | Activity [11]: Non-toxic | Activity [12]: Non-toxic | Activity [13]: Non-toxic | Activity [14]: Non-toxic | Activity [15]: ~20% | Activity [16]: Active | Activity [17]: Active | Activity [18]: Active | Activity [19]: Active | Activity [20]: Active | Activity [21]: Active; Significantly Reduced Macrophage Infiltration Into Tumor

O=C(CCCCCCC(=O)Nc1ccccc1)NO [VORINOSTAT]
Activity [1]: Active | Activity [2]: Active | Activity [22]: Active | Activity [23]: Active | inhibition [24]: Active | Activity [25]: Active | inhibition [26]: Active | Activity [27]: Non-toxic | Activity [28]: Non-toxic | Activity [29]: Non-toxic | Activity [30]: Non-toxic | Activity [31]: Active | Activity [32]: Active | Activity [33]: Non-toxic | Activity [34]: Non-toxic | Activity [35]: Non-toxic | Activity [36]: Non-toxic | Activity [37]: ~20% | Activity [38]: Active; No Significant Effect Observed
